Results reported in the supplement of paper PMC10307832.

How the values were obtained:
Experiment in all cases: relative viability (nuclei count vs DMSO), 5 days (fraction); higher = more cells survive
Zosuquidar + Pictilisib = compound: O[C@@H](COc1cccc2ncccc12)CN1CCN([C@@H]2c3ccccc3[C@@H]3[C@H](c4ccccc42)C3(F)F)CC1 [Zosuquidar] + CS(=O)(=O)N1CCN(Cc2cc3nc(-c4cccc5[nH]ncc45)nc(N4CCOCC4)c3s2)CC1 [Pictilisib] (partner 1 µM)
How it was run: (§1)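 After 5 days of treatment, lung cancer cells in 1536-well plates were fixed and stained in a single step (final 0.05% Triton X-100, 1% formaldehyde, 1 ug/ml Hoechst) and their nuclei counted on 4× images. Treatment had been applied by pin tool the day after seeding as one drug alone or as a fixed anchor-drug dose with five library-drug doses (not always all listed) in √10 steps. Relative viability is the nuclei count of treated wells divided by that of vehicle wells, and values are medians of duplicate plates.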

Zosuquidar + Bortezomib = compound: O[C@@H](COc1cccc2ncccc12)CN1CCN([C@@H]2c3ccccc3[C@@H]3[C@H](c4ccccc42)C3(F)F)CC1 [Zosuquidar] + CC(C)C[C@H](NC(=O)[C@H](Cc1ccccc1)NC(=O)c1cnccn1)B(O)O [Bortezomib] (partner 0.002 µM)
How it was run: as §1

Zosuquidar + Olaparib = compound: O[C@@H](COc1cccc2ncccc12)CN1CCN([C@@H]2c3ccccc3[C@@H]3[C@H](c4ccccc42)C3(F)F)CC1 [Zosuquidar] + O=C(c1cc(Cc2n[nH]c(=O)c3ccccc23)ccc1F)N1CCN(C(=O)C2CC2)CC1 [Olaparib] (partner 8 µM)
How it was run: as §1

Kobe2602 + Tozasertib = compound: C1=CC(=CC=C1NC(=S)NNC2=C(C=C(C=C2[N+](=O)[O-])C(F)(F)F)[N+](=O)[O-])F [Kobe2602] + Cc1cc(Nc2cc(N3CCN(C)CC3)nc(Sc3ccc(NC(=O)C4CC4)cc3)n2)n[nH]1 [Tozasertib] (partner 0.1 µM)
How it was run: as §1

| Cell Line | relative viability (Zosuquidar + Pictilisib; first compound 0.01 µM) | relative viability (Zosuquidar + Pictilisib; first compound 0.03162 µM) | relative viability (Zosuquidar + Pictilisib; first compound 0.1 µM) | relative viability (Zosuquidar + Pictilisib; first compound 0.3162 µM) | relative viability (Zosuquidar + Pictilisib; first compound 1 µM) | relative viability (Zosuquidar + Bortezomib; first compound 0.01 µM) | relative viability (Zosuquidar + Bortezomib; first compound 0.03162 µM) | relative viability (Zosuquidar + Bortezomib; first compound 0.1 µM) | relative viability (Zosuquidar + Bortezomib; first compound 0.3162 µM) | relative viability (Zosuquidar + Bortezomib; first compound 1 µM) | relative viability (Zosuquidar + Olaparib; first compound 0.01 µM) | relative viability (Zosuquidar + Olaparib; first compound 0.03162 µM) | relative viability (Zosuquidar + Olaparib; first compound 0.1 µM) | relative viability (Zosuquidar + Olaparib; first compound 0.3162 µM) | relative viability (Zosuquidar + Olaparib; first compound 1 µM) | relative viability (Kobe2602 + Tozasertib; first compound 0.2 µM) | relative viability (Kobe2602 + Tozasertib; first compound 0.6325 µM) | relative viability (Kobe2602 + Tozasertib; first compound 2 µM) | relative viability (Kobe2602 + Tozasertib; first compound 6.325 µM) | relative viability (Kobe2602 + Tozasertib; first compound 20 µM) |
| --- | --- | --- | --- | --- | --- | --- | --- | --- | --- | --- | --- | --- | --- | --- | --- | --- | --- | --- | --- | --- |
| EBC-1 | 0.41 | 0.52 | 0.395 | 0.458 | 0.377 | 0.649 | 0.553 | 0.652 | 0.591 | 0.547 | 0.692 | 0.797 | 0.638 | 0.827 | 0.705 |  |  |  |  |  |
| NCI-H1792 | 0.355 | 0.267 | 0.243 | 0.311 | 0.335 | 0.836 | 0.495 | 0.906 | 0.907 | 0.96 | 0.334 | 0.424 | 0.339 | 0.422 | 0.396 |  |  |  |  |  |
| NCI-H1944 | 0.342 | 0.337 | 0.312 | 0.363 | 0.349 |  |  |  |  |  | 0.404 | 0.407 | 0.384 | 0.516 | 0.385 | 0.264 | 0.267 | 0.262 | 0.245 | 0.279 |
| NCI-H1648 |  |  |  |  |  |  |  |  |  |  | 0.5 | 0.908 | 0.614 | 0.799 | 0.877 | 0.465 | 0.43 | 0.468 | 0.513 | 0.393 |
| A549 | 0.532 | 0.497 | 0.494 | 0.487 | 0.496 |  |  |  |  |  | 0.301 | 0.379 | 0.306 | 0.371 | 0.35 |  |  |  |  |  |
| NCI-H1299 | 0.623 | 0.836 | 0.968 | 0.796 | 0.861 | 1.01 | 1.01 | 0.997 | 0.962 | 1.03 | 0.982 | 0.976 | 0.993 | 0.963 | 1.01 |  |  |  |  |  |
| NCI-H2170 | 0.295 | 0.266 | 0.312 | 0.345 | 0.281 |  |  |  |  |  | 0.546 | 0.629 | 0.612 | 0.63 | 0.562 | 0.65 | 0.729 | 0.721 | 0.78 | 0.694 |
| NCI-H1623 |  |  |  |  |  |  |  |  |  |  |  |  |  |  |  | 0.42 | 0.433 | 0.396 | 0.439 | 0.412 |
| SK-MES-1 | 0.324 | 0.324 | 0.33 | 0.394 | 0.392 |  |  |  |  |  | 0.707 | 0.739 | 0.829 | 0.73 | 0.723 | 0.822 | 0.878 | 0.791 | 0.737 | 0.55 |
| NCI-H1793 | 0.483 | 0.383 |  | 0.357 | 0.297 |  |  |  |  |  | 0.971 |  |  | 1.01 | 0.758 | 0.279 | 0.305 | 0.292 | 0.417 | 0.278 |
| NCI-H522 |  |  |  |  |  |  |  |  |  |  | 0.724 | 0.623 | 0.684 | 0.766 | 0.668 | 0.68 | 0.644 | 0.552 | 0.592 | 0.568 |
| Calu-6 | 0.855 | 0.942 | 1.02 | 0.976 | 0.918 | 0.955 | 1.05 | 1.13 | 1.05 | 1.15 | 0.583 | 0.677 | 0.714 | 0.605 | 0.594 |  |  |  |  |  |
| NCI-H1395 | 0.574 | 0.556 | 0.52 | 0.683 | 0.809 |  |  |  |  |  | 0.469 | 0.441 |  | 0.501 | 0.443 | 0.72 | 0.793 | 0.878 | 0.741 | 0.776 |
